Measured values taken from patent US10010536B2, “Method of modulating stress-activated protein kinase system” (InterMune, Inc., priority 2005, dated 2018).
pEC50: −log10 of the molar value.

Key:
[1] = system: TNFα release from THP-1 cells stimulated with lipopolysaccharide (LPS); assay: Inhibition of TNFα release from THP-1 cells stimulated with lipopolysaccharide (LPS); assay type: cell-based; design: key to TNF EC50: A: ≤2,000; B: >2,000; C: Inconclusive (e.g., no data or no activity observed); conditions: for pEC50: Homo sapiens, read-out: TNF EC50
Procedure: Compounds are screened for the ability to inhibit TNFα release from THP-1 cells stimulated with lipopolysaccharide (LPS) in vitro. The ability of compounds to inhibit TNFα release in this in vitro assay is correlated with the inhibition of p38 activity and TNFα, and is therefore an indicator of potential in vivo therapeutic activity (Lee J. C. et al. 1993 Ann. N.Y. Acad. Sci. 696:149-170; and 1994 Nature 372:739-746).
THP-I cells from ATCC (TIB202) are maintained at 37° C., 5% CO2 in RPMI 1640 media (MediaTech, Herndon, Va.) containing 4.5 g/L glucose, supplemented with 10% fetal bovine serum, 1% penicillin/streptomycin and 50 μM β-mercaptoethanol.
Test compounds are initially dissolved in RPMI media with 1% DMSO (v/v). Compounds are then serially diluted in RPMI media for all subsequent dilutions. The assay is performed under sterile conditions. THP-1 cells at a culture density of 6-8×10^5 cells/ml are collected and resuspended in the RPMI media at 10^6 cells/ml. 100 μl of resuspended cells are added to each well, which contain 100 μl of a test compound. Test compounds are prepared at twice the final concentration. Final DMSO concentration is no more than 0.5% (v/v). Cells are preincubated with compound for 60 minutes at 37° C., 5% CO2 prior to stimulation with lipopolysaccharide (LPS) (Sigma L-2880, 4 mg/ml stock in PBS). The final LPS concentration in each well is […] for TNFα and IL-1β release, respectively. Unstimulated control cell suspensions receive PBS vehicle only. Cell mixtures are incubated for 18 or 48 hours for TNFα and IL-1β release, respectively. 150 μl of supernatants are taken and transferred to a fresh plate and stored at −20° C. until farther analysis. TNFα and IL-1β levels are measured using ELISA kits. A Luminescence is used as the plate reader. Analysis is performed by non-linear regression to generate a dose response curve.

[2] = system: THP-1 cells; assay: Compound toxicity testing in a cell based assay (LDH release, ATP and/or MTT assay); conditions: given as concentration
Procedure: The release of LDH as result of a disrupted cell membrane is applied as a measure of cell toxicity. […] THP-1 cells are used for determination of cell toxicity for consistency with the induced TNFα expression in the previous experiment. […] The compounds are added at different concentrations in triplicate. The appropriate solvent control is used in each assay. After compound addition the cells are cultured 18 hours under regular tissue culture conditions. After this incubation period, the positive control is initiated by adding Triton-X-100 (2% v/v) to untreated cells and incubated for an additional 10 minutes for complete cell lysis. Subsequently the cells are sedimented by centrifugation and a fraction of the supernatant removed and analyzed for LDH enzyme activity according to the manufacturer's instructions. The data is typically reported as % cell toxicity normalized to the Triton-X-100 lysed cells as 100% cell toxicity.
Toxicity data are also obtained using a commercially available ATP assay (Molecular Probes' ATP Determination Kit A22066, available from Invitrogen) and/or using a MTT assay. Both the ATP and the MTT assays measure metabolic competence of the cell. The MTT assay measures the ability of the cell to reduce a marker substrate, which is related to metabolic competence (i.e. viability). The ATP assay measures the cellular ATP concentration in the presence and absence of compound. Toxic compounds lead to reduced metabolic activity which leads to a reduction in ATP concentration.

[3] = system: HFL-1 Cells; assay: Effect of compounds on TGF-β-induced collagen production in HFL-1 cells (Sircol collagen assay); assay type: cell-based; conditions: Homo sapiens, HFL1, 72 h, compound 1 mM, TGF-β1 10 ng/mL, three days, read-out: % Inhibition of TGF-β Stimulated Collagen Synthesis
Procedure: HFL-1 Cells (ATCC, Rockville, Md.) were grown under regular tissue culture conditions in complete media containing 10% fetal bovine serum (FBS; Mediatech, Inc., Herndon, Va.). Cells in early passage were plated in 6 well plates. When the cells reached confluence, the media was removed, cells washed with PBS, and the cells were kept overnight in complete media containing 0.1% FBS. The media was then replaced with fresh media plus 0.1% FCS, 10 μM L-Proline (EMD Chemicals, Gibbstown, N.J.), 20 μg/mL ascorbic acid (EMD Chemicals, Gibbstown, N.J.). Compounds were added to triplicate wells to a final concentration of 1 mM from 100× stock solutions in DMSO. One hour after the addition of compound, the cells were treated with TGF-β1 (Sigma-Aldrich, St. Louis, Mo.) to a final concentration of 10 ng/mL (25 ng total). Three days after addition of TGF-β, the media was removed, cells were washed with PBS and then lysed. The total collagen content of lysed cells was assessed with a dye-based collagen assay (Sircol Collagen Assay, Newtownabbey, Northern Ireland) and a μQuant plate-based spectrophotometer (BioTek Insturments, Inc., Winooski, Vt.) with appropriate standard curves. The dynamic range of the assay is defined by cells that were mock treated (1% DMSO without compound) in the presence and absence of TGF-β.

[4] = Pharmacokinetic properties in dual canulated Sprague Dawley rats; assay type: in vivo; design: Clobs: unit not given here; conditions: rat; for AUC(0-t) / MRT inf / half-life: male, Sprague Dawley, plasma
Procedure: The pharmacokinetic (PK) properties of pirfenidone, pirfenidone analogs and derivatives were assessed in dual canulated (right jugular/left carotid) Sprague Dawley rats (Charles River Laboratories, Inc., Wilmington, Mass.). Male rats weighing approximately 275-300 g were administered an intravenous (5 mg/Kg) or oral (50 mg/Kg via gavage) dose of compound in an appropriate formulation. Plasma samples were collected via intra-arterial canula at desired times in the 24 hours after dosing using EDTA as an anticoagulant. Three animals were used for each compound. All experiments were conducted by trained personnel in accordance with guidelines of the appropriate Institutional Animal Care and Use Committees (IACUC). Compound concentrations were assessed by LC-MS using a MDS SCIEX API 3000 mass spectrometer (Applied Biosystems, Foster City, Calif.) coupled to a Shimadzu VP HPLC (Shimadzu Corp., Kyoto, Japan) outfitted with a Duragel G C18 guard cartridge (Peeke Scientific, Redwood City, Calif.). Calibration samples were prepared by mixing known amounts of pirfenidone, or a pirfenidone analog or derivative, with rat plasma. A standard curve was created by serial dilution of the calibration sample in the same matrix. Both standard and analytical samples were prepared for injection to the HPLC by mixing an aliquot of plasma sample with 3 volumes of ice cold acetonitrile containing internal standard. Samples were then centrifuged. An aliquot of the resulting supernatant was then mixed with five volumes of 0.2% formic acid in water, injected to the HPLC, and resolved in a methanol gradient (containing 0.18-0.2% formic acid). The integrated analyte signal was corrected for that of the internal standard and compared to the appropriate standard curve in order to define the analyte concentration. The pharmacokinetic parameters shown in Table 4 were derived using the WinNonlin Software package (Pharsight Corp, Mountain View, Calif.).

| pEC50 [1] | TNF EC50 [1] | Compound | further results |
| --- | --- | --- | --- |
| ≥ 2.70 | – | Cc1ccc(=O)n(-c2ccc(O)cc2)c1 [Compound 5] | Toxicity [2]: ≥1 mM |
| – | C | COc1ccc(-n2cc(C(F)(F)F)ccc2=O)cc1 [Compound 15] | inhibition at 1000 µM [3]: 49% |
| ≥ 2.70 | – | O=c1ccc(Br)cn1-c1ccc(O)cc1 [Compound 30] | inhibition at 1000 µM [3]: 69% |
| ≥ 2.70 | – | Cc1ccc(=O)n(-c2ccccc2)c1 [Compound 13, 5-methyl-1-phenyl-2-(1H)-pyridone, reference compound] | Toxicity [2]: ≥1 mM |
| – | C | O=C(O)c1ccc(=O)n(-c2ccccc2)c1 [Compound 2] | – |
| < 2.70 | – | O=c1ccccn1-c1ccc(F)cc1 [Compound 11] | – |
| ≥ 2.70 | – | COCc1ccc(=O)n(-c2ccccc2)c1 [Compound 6] | Toxicity [2]: ≥1 mM |
| ≥ 2.70 | – | COc1ccc(-n2cc(Br)ccc2=O)cc1 [Compound 27] | – |
| – | C | O=c1ccc(C(F)(F)F)cn1-c1ccc(F)cc1 [Compound 12] | – |
| ≥ 2.70 | – | Cc1cc(O)c(=O)n(-c2ccccc2)c1 [Compound 4] | Toxicity [2]: ≥1 mM |
| – | C | Cc1ccc(=S)n(-c2ccccc2)c1 [Compound 18, 1-phenyl-5-methyl-2-pyridinethione] | – |
| – | C | CC(=O)c1ccc(=O)n(-c2ccccc2)c1 [Compound 16, 1-phenyl-5-acetyl-2-pyridone] | – |
| < 2.70 | – | O=c1ccccn1-c1ccccc1 [Compound 7] | – |
| – | C | O=c1ccc(-c2ccccc2)cn1-c1ccccc1 [Compound 17] | – |
| < 2.70 | – | O=c1ccc(C(F)(F)F)cn1-c1ccccc1 [Compound 8] | AUC(0-t) ([4]; IV, 5 mg/kg): 30200 ng·h/mL; MRT inf ([4]; IV, 5 mg/kg): 20.3 h; half-life ([4]; IV, 5 mg/kg): 13.9 h; AUC(0-t) ([4]; Oral, 50 mg/kg): 122000 ng·h/mL; Clobs ([4]; IV, 5 mg/kg): 0.117; E ([4]; Oral, 50 mg/kg): 40.5%; inhibition at 1000 µM [3]: 48% |
| – | C | O=c1ccccn1-c1ccc(O)cc1 [Compound 9] | – |
| ≥ 2.70 | – | COc1ccc(-n2cc(C(F)F)ccc2=O)cc1 [Compound 32] | – |
| < 2.70 | – | Cc1ccc(=O)n(-c2cc[n+](C)cc2)c1 [Compound 25] | – |
| < 2.70 | – | O=c1ccc(CO)cn1-c1ccccc1 [Compound 1] | – |
| ≥ 2.70 | – | COc1ccc(-n2cc(CF)ccc2=O)cc1 [Compound 31] | – |
| – | – | O=c1ccc(C(F)F)cn1-c1ccccc1 [Compound 19] | AUC(0-t) ([4]; IV, 5 mg/kg): 35000 ng·h/mL; MRT inf ([4]; IV, 5 mg/kg): 6.26 h; half-life ([4]; IV, 5 mg/kg): 2.96 h; AUC(0-t) ([4]; Oral, 50 mg/kg): 192000 ng·h/mL; Clobs ([4]; IV, 5 mg/kg): 0.142; E ([4]; Oral, 50 mg/kg): 54.8% |
| ≥ 2.70 | – | O=c1ccc(Br)cn1-c1ccccc1 [Compound 26] | AUC(0-t) ([4]; IV, 5 mg/kg): 10300 ng·h/mL; MRT inf ([4]; IV, 5 mg/kg): 2.4 h; half-life ([4]; IV, 5 mg/kg): 1.62 h; AUC(0-t) ([4]; Oral, 50 mg/kg): 65800 ng·h/mL; Clobs ([4]; IV, 5 mg/kg): 0.691; E ([4]; Oral, 50 mg/kg): 63.9%; inhibition at 1000 µM [3]: 58% |
| ≥ 2.70 | – | O=c1ccc(C(F)(F)F)cn1-c1ccc(O)cc1 [Compound 10, 1-(4-hydroxyphenyl)-5-(trifloromethyl)-2-pyridone] | – |
| – | C | O=c1ccc(C(F)F)cn1-c1ccc(O)cc1 [Compound 29] | – |
| – | C | COC(=O)c1ccc(=O)n(-c2ccccc2)c1 [Compound 24] | – |
| – | C | O=c1ccc2cc(Br)ccc2n1-c1ccccc1 [Compound 33] | – |
| < 2.70 | – | Cc1ccc(=O)n(-c2ccc(F)cc2)c1 [Compound 14] | inhibition at 1000 µM [3]: 23% |
| – | C | O=c1ccc(CF)cn1-c1ccc(O)cc1 [Compound 28] | – |
